Patent publication US20110034335A1, “Treatment of Ornamental Plants” (priority 2009, published 2011)

Key:
Format in all cases: in vivo
Kalanchoe = assay: Spray with 1-MCP solutions with or without Silwet L-77, ethylene challenge (Example 2)
Protocol: (§1) Spray applications were made using (unless otherwise noted) AFxRD-038 powder containing 3.8% active ingredient, i.e. 1-MCP, and also containing dextrose, alpha-cyclodextrin, and amino acid salt. Rates listed are for active ingredient e.g. 5 mg active ingredient per liter. Sprayed liquid contained (unless otherwise noted) AFxRD-038 powder added to water. AFxRD-038 powder was obtained from AgroFresh Inc. The water used (unless otherwise noted) was tap water. Applications were done in 500 ml spray bottles at rates typical for growth regulators applications in the ornamental industry i.e., 200 ml per square meter. Spraying was done within 5-15 minutes of mixing the formulation. Plants were allowed to dry for 1-4 hours before being challenged with ethylene (2 ppm for about 16 hours at ambient temperatures).
(§2) Surfactant Silwet™ L-77 (called “surf” below) was sometimes included to evaluate the effect of surfactant on efficacy. Silwet™ L-77 was used in the form of a pure liquid. The amounts shown below as “ml/L” refer to milliliters of pure Silwet™ L-77 per liter of liquid CP composition.
(§3) Kalanchoe (unknown cultivar), ‘Candy Stripe’ phlox and ‘Sonnet’ snapdragon (all in pots of diameter 10 cm (4 inch)) were sprayed with 1-MCP solutions, with or without Silwet™ L-77 surfactant (specific gravity 1.007), and challenged with ethylene.
(§4) For Kanlanchoe, we observed the percent of plants on which one or more flowers died by wilting, whether or not it stayed on the plant. For Phlox and Snapdragon, we observed the percent of plants on which one or more flowers or one or more buds underwent abscission.

‘Candy Stripe’ phlox = assay: as above; details: for Bud or Flower Abscission (%): Day 5
Protocol: as §1, §2, §3, §4

‘Sonnet’ snapdragon = assay: as above; details: for Bud or Flower Abscission (%): Day 5
Protocol: as §1, §2, §3, §4

Petunia = assay: Spray with 1-MCP solutions with or without Silwet L-77, ethylene challenge (Example 6)
Protocol: as §1, §2
Bud wilting (%) of Petunia (in six-pack trays) sprayed with 1-MCP solutions with or without Silwet™ L-77 surfactant and challenged with ethylene.

[1] = tested on: ‘Hark’ Phalaenopsis orchids; assay: Spray with 1-MCP solutions with or without Silwet L-77, ethylene challenge (Example 7)
Protocol: as §1, §2
Percent of plants showing one or more of flower wilting, bud wilting, and drop on ‘Hark’ Phalaenopsis orchids (in pots) sprayed with 1-MCP solutions with or without Silwet™ L-77 surfactant and challenged with ethylene.

Asclepias = assay: Nursery plants sprayed, boxed and shipped, quality rating (Example 10); details: 50 mg/L of 1-MCP; after 5 days shipping; 0 (poor) to 2 (good)
Protocol: (§5) A range of nursery plants that often show quality problems during shipping were chosen including Datura (tropical), Mini-rose, Delphinium (sun perennial), Verbena (sun perennial), Asclepias (sun perennial), Delosperma (groundcover), Myosotis (shade perennial) and Primula (shade perennial).
(§6) Spray liquid had 50 mg/L of 1-MCP. Sprayed and unsprayed control plants, all of which were blooming, were packed in boxes according to standard procedures and shipped under commercial conditions. After 5 days plants were unpacked and given a quality rating, from 0 (poor) to 2 (good).

Datura (tropical) = assay: as above; details: 50 mg/L of 1-MCP; after 5 days shipping; 0 (poor) to 2 (good)
Protocol: as §5, §6

Delosperma = assay: as above; details: 50 mg/L of 1-MCP; after 5 days shipping; 0 (poor) to 2 (good)
Protocol: as §5, §6

Delphinium = assay: as above; details: 50 mg/L of 1-MCP; after 5 days shipping; 0 (poor) to 2 (good)
Protocol: as §5, §6

Mini-rose = assay: as above; details: 50 mg/L of 1-MCP; after 5 days shipping; 0 (poor) to 2 (good)
Protocol: as §5, §6

Myosotis = assay: as above; details: 50 mg/L of 1-MCP; after 5 days shipping; 0 (poor) to 2 (good)
Protocol: as §5, §6

Primula = assay: as above; details: 50 mg/L of 1-MCP; after 5 days shipping; 0 (poor) to 2 (good)
Protocol: as §5, §6

Verbena = assay: as above; details: 50 mg/L of 1-MCP; after 5 days shipping; 0 (poor) to 2 (good)
Protocol: as §5, §6

[2] = 1-MCP 5 mg/L, surf 0 ml/L, Day 5
[3] = 1-MCP 5 mg/L, surf 0 ml/L, Day 15
[4] = 1-MCP 5 mg/L, surf 0.25 ml/L, Day 5
[5] = 1-MCP 10 mg/L, surf 0 ml/L, Day 5
[6] = 1-MCP 10 mg/L, surf 0 ml/L, Day 15
[7] = 1-MCP 10 mg/L, surf 0.25 ml/L, Day 5
[8] = 1-MCP 25 mg/L, surf 0 ml/L, Day 5
[9] = 1-MCP 25 mg/L, surf 0 ml/L, Day 15
[10] = 1-MCP 50 mg/L, surf 0 ml/L, Day 5
[11] = 1-MCP 50 mg/L, surf 0 ml/L, Day 15
[12] = 1-MCP 50 mg/L, surf 0.25 ml/L, Day 5
[13] = 1-MCP 50 mg/L, surf 0.25 ml/L, Day 15

CC1=CC1 [1-MCP, 1-methylcyclopropene]
protection against ethylene (Kalanchoe; 1-MCP 5 mg/L): sufficient in giving protection against ethylene | Flower Wilting (%) (Kalanchoe; [2]): 7.9% | Flower Wilting (%) (Kalanchoe; [3]): 11.9% | Flower Wilting (%) (Kalanchoe; [4]): 7.3% | Flower Wilting (%) (Kalanchoe; 1-MCP 5 mg/L, surf 0.25 ml/L, Day 15): 8.7% | Flower Wilting (%) (Kalanchoe; [5]): 5.6% | Flower Wilting (%) (Kalanchoe; [6]): 6.7% | Flower Wilting (%) (Kalanchoe; [7]): 5.5% | Flower Wilting (%) (Kalanchoe; 1-MCP 10 mg/L, surf 0.25 ml/L, Day 15): 6.8% | Flower Wilting (%) (Kalanchoe; [8]): 4.6% | Flower Wilting (%) (Kalanchoe; [9]): 7.2% | Flower Wilting (%) (Kalanchoe; 1-MCP 25 mg/L, surf 0.25 ml/L, Day 5): 6.2% | Flower Wilting (%) (Kalanchoe; 1-MCP 25 mg/L, surf 0.25 ml/L, Day 15): 7.4% | phytotoxicity (Kalanchoe; 1-MCP 50 mg/L): did not result in any phytotoxicity | Flower Wilting (%) (Kalanchoe; [10]): 6.7% | Flower Wilting (%) (Kalanchoe; [11]): 7.5% | Flower Wilting (%) (Kalanchoe; [12]): 5.7% | Flower Wilting (%) (Kalanchoe; [13]): 6.7% | protection against ethylene (‘Candy Stripe’ phlox; 1-MCP 5 mg/L): sufficient in giving protection against ethylene | Bud or Flower Abscission (%) (‘Candy Stripe’ phlox; 1-MCP 5 mg/L, surf 0 ml/L): 21.4% | Bud or Flower Abscission (%) (‘Candy Stripe’ phlox; 1-MCP 5 mg/L, surf 0.25 ml/L): 26.0% | Bud or Flower Abscission (%) (‘Candy Stripe’ phlox; 1-MCP 10 mg/L, surf 0 ml/L): 17.3% | Bud or Flower Abscission (%) (‘Candy Stripe’ phlox; 1-MCP 10 mg/L, surf 0.25 ml/L): 22.8% | Bud or Flower Abscission (%) (‘Candy Stripe’ phlox; 1-MCP 25 mg/L, surf 0 ml/L): 15.8% | Bud or Flower Abscission (%) (‘Candy Stripe’ phlox; 1-MCP 25 mg/L, surf 0.25 ml/L): 21.2% | Bud or Flower Abscission (%) (‘Candy Stripe’ phlox; 1-MCP 50 mg/L, surf 0 ml/L): 44.1% | Bud or Flower Abscission (%) (‘Candy Stripe’ phlox; 1-MCP 50 mg/L, surf 0.25 ml/L): 40.0% | phytotoxicity to the open florets (‘Candy Stripe’ phlox; the highest rates of 1-MCP): caused phytotoxicity to the open florets | protection against ethylene (‘Sonnet’ snapdragon; 1-MCP 5 mg/L): sufficient in giving protection against ethylene | Bud or Flower Abscission (%) (‘Sonnet’ snapdragon; 1-MCP 5 mg/L, surf 0 ml/L): 19.9% | Bud or Flower Abscission (%) (‘Sonnet’ snapdragon; 1-MCP 5 mg/L, surf 0.25 ml/L): 0.0% | Bud or Flower Abscission (%) (‘Sonnet’ snapdragon; 1-MCP 10 mg/L, surf 0 ml/L): 4.4% | Bud or Flower Abscission (%) (‘Sonnet’ snapdragon; 1-MCP 10 mg/L, surf 0.25 ml/L): 3.3% | Bud or Flower Abscission (%) (‘Sonnet’ snapdragon; 1-MCP 25 mg/L, surf 0 ml/L): 7.4% | Bud or Flower Abscission (%) (‘Sonnet’ snapdragon; 1-MCP 25 mg/L, surf 0.25 ml/L): 3.3% | phytotoxicity on flowers (‘Sonnet’ snapdragon; 1-MCP 50 mg/L): did not result in any phytotoxicity | Bud or Flower Abscission (%) (‘Sonnet’ snapdragon; 1-MCP 50 mg/L, surf 0 ml/L): 6.4% | Bud or Flower Abscission (%) (‘Sonnet’ snapdragon; 1-MCP 50 mg/L, surf 0.25 ml/L): 8.9% | phytotoxicity to the open florets (‘Sonnet’ snapdragon; the highest rates of 1-MCP): caused phytotoxicity to the open florets | Bud Wilting (%) (Petunia; 1-MCP 1 mg/L, surf 0 ml/L, Day 5): 89% | Bud Wilting (%) (Petunia; 1-MCP 1 mg/L, surf 0 ml/L, Day 9): 93% | Bud Wilting (%) (Petunia; 1-MCP 1 mg/L, surf 0.25 ml/L, Day 5): 76% | Bud Wilting (%) (Petunia; 1-MCP 1 mg/L, surf 0.25 ml/L, Day 9): 93% | Bud Wilting (%) (Petunia; 1-MCP 2.5 mg/L, surf 0 ml/L, Day 5): 74% | Bud Wilting (%) (Petunia; 1-MCP 2.5 mg/L, surf 0 ml/L, Day 9): 91% | Bud Wilting (%) (Petunia; 1-MCP 2.5 mg/L, surf 0.25 ml/L, Day 5): 68% | Bud Wilting (%) (Petunia; 1-MCP 2.5 mg/L, surf 0.25 ml/L, Day 9): 85% | Bud Wilting (%) (Petunia; [2]): 63% | Bud Wilting (%) (Petunia; 1-MCP 5 mg/L, surf 0 ml/L, Day 9): 71% | Bud Wilting (%) (Petunia; [4]): 57% | Bud Wilting (%) (Petunia; 1-MCP 5 mg/L, surf 0.25 ml/L, Day 9): 67% | Bud Wilting (%) (Petunia; [5]): 34% | Bud Wilting (%) (Petunia; 1-MCP 10 mg/L, surf 0 ml/L, Day 9): 52% | Bud Wilting (%) (Petunia; [7]): 37% | Bud Wilting (%) (Petunia; 1-MCP 10 mg/L, surf 0.25 ml/L, Day 9): 50% | flower wilt, bud wilt, and/or drop (%) ([1]; 1-MCP 5 mg/L, surf 0 ml/L, Day 0): 0 a % | flower wilt, bud wilt, and/or drop (%) [1, 2]: 1.8% | flower wilt, bud wilt, and/or drop (%) ([1]; 1-MCP 5 mg/L, surf 0 ml/L, Day 10): 1.8% | flower wilt, bud wilt, and/or drop (%) [1, 3]: 1.8% | flower wilt, bud wilt, and/or drop (%) ([1]; 1-MCP 10 mg/L, surf 0 ml/L, Day 0): 0 a % | flower wilt, bud wilt, and/or drop (%) [1, 5]: 2.9% | flower wilt, bud wilt, and/or drop (%) ([1]; 1-MCP 10 mg/L, surf 0 ml/L, Day 10): 2.9% | flower wilt, bud wilt, and/or drop (%) [1, 6]: 2.9% | flower wilt, bud wilt, and/or drop (%) ([1]; 1-MCP 25 mg/L, surf 0 ml/L, Day 0): 0 a % | flower wilt, bud wilt, and/or drop (%) [1, 8]: 0% | flower wilt, bud wilt, and/or drop (%) ([1]; 1-MCP 25 mg/L, surf 0 ml/L, Day 10): 0% | flower wilt, bud wilt, and/or drop (%) [1, 9]: 0% | flower wilt, bud wilt, and/or drop (%) ([1]; 1-MCP 50 mg/L, surf 0 ml/L, Day 0): 0 a % | flower wilt, bud wilt, and/or drop (%) [1, 10]: 1.8% | flower wilt, bud wilt, and/or drop (%) ([1]; 1-MCP 50 mg/L, surf 0 ml/L, Day 10): 1.8% | flower wilt, bud wilt, and/or drop (%) [1, 11]: 1.8% | flower wilt, bud wilt, and/or drop (%) ([1]; 1-MCP 50 mg/L, surf 0.25 ml/L, Day 0): 0 a % | flower wilt, bud wilt, and/or drop (%) [1, 12]: 0% | flower wilt, bud wilt, and/or drop (%) ([1]; 1-MCP 50 mg/L, surf 0.25 ml/L, Day 10): 0% | flower wilt, bud wilt, and/or drop (%) [1, 13]: 0% | Quality Rating, Sprayed (Asclepias): 1.5 | Quality Rating, Sprayed (Datura (tropical)): 2.0 | Quality Rating, Sprayed (Delosperma): 1.3 | Quality Rating, Sprayed (Delphinium): 1.0 | Quality Rating, Sprayed (Mini-rose): 1.8 | Quality Rating, Sprayed (Myosotis): 0.5 | Quality Rating, Sprayed (Primula): 1.0 | Quality Rating, Sprayed (Verbena): 0.5
